From ChEMBL document CHEMBL4483862, “Open-source discovery of chemical leads for next-generation chemoprotective antimalarials” (2018)

Tested on: Plasmodium berghei
Test: Luciferase/luciferin-expressing antifolate-resistant parasites were used to infect a culture of HepG2 cells that were pre-incubated with compounds. Infected hepatocytes emit light due to the luciferase reaction. Assay results are presented as the percent inhibition of light emission compared to control. […]
Assay type: functional
Details: sporozoite; for IC90: read-out: LUCIFERASE INFECTION ASSAY - IC90

Row | Compound | IC90 | also measured
1 | CCCCNC(=O)c1c(NC(=O)COc2ccccc2)nc2ccccn12 | > 9.01 µM | IC50 (FFLUC_HILL_SLOPE 15.1, FFLUC_R_SQUARED 0.601, PBLUC_HILL_SLOPE 2.91, PBLUC_R_SQUARED 0.515, read-out: LUCIFERASE INFECTION ASSAY - IC50): 5.13 µM
2 | Clc1ccc(-c2cnc3cnc(-c4ccco4)cn23)cc1 | > 11.2 µM | IC50 (FFLUC_HILL_SLOPE 15, FFLUC_R_SQUARED 0.745, PBLUC_HILL_SLOPE 1.06, PBLUC_R_SQUARED 0.544, read-out: LUCIFERASE INFECTION ASSAY - IC50): 7.89 µM
3 | Cc1ccc(C(=O)Cn2c(=O)n(C3CCCCC3)c(=O)c3ccccc32)cc1 | > 8.77 µM | IC50 (FFLUC_HILL_SLOPE 15.7, FFLUC_R_SQUARED 0.382, PBLUC_HILL_SLOPE 31.1, PBLUC_R_SQUARED 0.0716, read-out: LUCIFERASE INFECTION ASSAY - IC50): > 8.77 µM
4 | Cc1c(C(=O)C(F)(F)F)c(-c2nn(-c3ccccc3)c(NC(=O)C(F)(F)F)c2C(=O)C(F)(F)F)c(C)n1-c1ccc(Br)cc1 | > 10 µM | IC50 (FFLUC_HILL_SLOPE 15.1, FFLUC_R_SQUARED 0.397, PBLUC_HILL_SLOPE 2.07, PBLUC_R_SQUARED 0.0694, read-out: LUCIFERASE INFECTION ASSAY - IC50): 6.64 µM
5 | COC(=O)c1ccc(O)c(CSc2ccc(Cl)cc2)c1 | > 10.7 µM | IC50 (FFLUC_HILL_SLOPE 15.4, FFLUC_R_SQUARED 0.267, PBLUC_HILL_SLOPE 7.94, PBLUC_R_SQUARED 0.227, read-out: LUCIFERASE INFECTION ASSAY - IC50): 8.54 µM
6 | Cc1oc2cc(OCC(=O)N3CCc4ccccc43)ccc2c(=O)c1-c1c(F)cccc1Cl | > 10 µM | IC50 (FFLUC_HILL_SLOPE 15.3, FFLUC_R_SQUARED 0.621, read-out: LUCIFERASE INFECTION ASSAY - IC50): > 10 µM
7 | Clc1ccc(-c2cnc3cnc(-c4cnn(Cc5ccccc5)c4)cn23)cc1 | 3.3 µM | IC50 (FFLUC_HILL_SLOPE 15.7, FFLUC_R_SQUARED 0.271, HEPG2TOX_HILL_SLOPE 2.48, HEPG2TOX_R_SQUARED 0.0283, PBLUC_HILL_SLOPE 11.5, PBLUC_R_SQUARED 0.641, read-out: LUCIFERASE INFECTION ASSAY - IC50): 2.73 µM
8 | CCCNC(=O)c1c(NC(=O)c2ccc(C)cc2)nc2ccc(C)cn12 | 4.76 µM | IC50 (FFLUC_HILL_SLOPE 15.6, FFLUC_R_SQUARED 0.337, HEPG2TOX_HILL_SLOPE 1.6, HEPG2TOX_R_SQUARED 0.209, PBLUC_HILL_SLOPE 10.4, PBLUC_R_SQUARED 0.336, read-out: LUCIFERASE INFECTION ASSAY - IC50): 3.85 µM
9 | Cc1ccc(CNC(=O)c2cc(-c3ccccc3)nn2-c2ccccc2)cc1 | > 10 µM | IC50 (FFLUC_HILL_SLOPE 15.6, FFLUC_R_SQUARED 0.349, read-out: LUCIFERASE INFECTION ASSAY - IC50): > 10 µM
10 | CCN(CC)c1ccc(NC(=O)c2cccc(N3C(=O)c4ccccc4C3=O)c2)cc1S(=O)(=O)Nc1ccccc1OC | > 10 µM | IC50 (FFLUC_HILL_SLOPE 15.4, FFLUC_R_SQUARED 0.773, PBLUC_HILL_SLOPE 13.2, PBLUC_R_SQUARED 0.21, read-out: LUCIFERASE INFECTION ASSAY - IC50): 9.38 µM
11 | O=S(=O)(Nc1ccc(C(F)(F)F)cc1)c1ccc(S(=O)(=O)c2ncc(C(F)(F)F)cc2Cl)s1 | > 5.99 µM | IC50 (FFLUC_HILL_SLOPE 15.7, FFLUC_R_SQUARED 0.198, HEPG2TOX_HILL_SLOPE 0.681, HEPG2TOX_R_SQUARED 0.155, read-out: LUCIFERASE INFECTION ASSAY - IC50): > 5.99 µM
12 | CC1CC(OCC(O)CN2CCN(c3ccc(F)cc3)CC2)CC(C)(C)C1 (stereo not given) | > 7.31 µM | IC50 (FFLUC_HILL_SLOPE 15.4, FFLUC_R_SQUARED 0.216, PBLUC_HILL_SLOPE 1.14, PBLUC_R_SQUARED 0.115, read-out: LUCIFERASE INFECTION ASSAY - IC50): > 7.31 µM
13 | O=C1C=C(c2ccc(Cl)cc2)C(=O)N1Nc1ccc(Cl)cc1Cl | > 8.98 µM | IC50 (FFLUC_HILL_SLOPE 15.4, FFLUC_R_SQUARED 0.324, HEPG2TOX_HILL_SLOPE 12.8, HEPG2TOX_R_SQUARED 0.543, PBLUC_HILL_SLOPE 10.1, PBLUC_R_SQUARED 0.012, read-out: LUCIFERASE INFECTION ASSAY - IC50): 8.35 µM
14 | Cc1[nH]c2ccccc2c1/C=N/n1c(-c2ccc(Cl)cc2Cl)cs/c1=N\CC1CCCO1 (stereo not given) | 6.77 µM | IC50 (FFLUC_HILL_SLOPE 15.4, FFLUC_R_SQUARED 0.637, HEPG2TOX_HILL_SLOPE 0.309, HEPG2TOX_R_SQUARED 0.658, PBLUC_HILL_SLOPE 1.1, PBLUC_R_SQUARED 0.559, read-out: LUCIFERASE INFECTION ASSAY - IC50): 0.923 µM
15 | CCOC(=O)/C(C)=N/Nc1ccc(OC(F)(F)F)cc1 | > 11.4 µM | IC50 (FFLUC_HILL_SLOPE 15.6, FFLUC_R_SQUARED 0.429, HEPG2TOX_HILL_SLOPE 8.88, HEPG2TOX_R_SQUARED 0.352, PBLUC_HILL_SLOPE 1.63, PBLUC_R_SQUARED 0.496, read-out: LUCIFERASE INFECTION ASSAY - IC50): 9.31 µM
16 | O=[N+]([O-])c1cc(Cl)ccc1N1CCN(c2ncnc3sc4c(c23)CCC4)CC1 | > 10 µM | IC50 (FFLUC_HILL_SLOPE 15.4, FFLUC_R_SQUARED 0.646, read-out: LUCIFERASE INFECTION ASSAY - IC50): > 10 µM
17 | COc1ccc(Cl)cc1NC(=O)C(C)N1CCC(c2c[nH]c3ccccc23)CC1 (stereo not given) | 4.83 µM | IC50 (FFLUC_HILL_SLOPE 15.4, FFLUC_R_SQUARED 0.69, PBLUC_HILL_SLOPE 100, PBLUC_R_SQUARED 0.101, read-out: LUCIFERASE INFECTION ASSAY - IC50): 4.73 µM
18 | Cc1ccc2nc(NC(=O)c3ccc(F)c(F)c3)c(C(=O)NC3CCCC3)n2c1 | 1.33 µM | IC50 (FFLUC_HILL_SLOPE 15.6, FFLUC_R_SQUARED 0.751, HEPG2TOX_HILL_SLOPE 0.983, HEPG2TOX_R_SQUARED 0.896, PBLUC_HILL_SLOPE 4.3, PBLUC_R_SQUARED 0.744, read-out: LUCIFERASE INFECTION ASSAY - IC50): 0.8 µM
19 | O=C(NC1CCN(Cc2ccccc2)C1)c1cc2cc(Br)ccc2[nH]1 (stereo not given) | > 10 µM | IC50 (FFLUC_HILL_SLOPE 15.5, FFLUC_R_SQUARED 0.545, HEPG2TOX_HILL_SLOPE 1.06, HEPG2TOX_R_SQUARED 0.919, PBLUC_HILL_SLOPE 3.35, PBLUC_R_SQUARED 0.069, read-out: LUCIFERASE INFECTION ASSAY - IC50): 7.09 µM
20 | CC(C)N(C(=O)COC(=O)C1=NNC(=O)CC1)C(C)C | > 10 µM | IC50 (FFLUC_HILL_SLOPE 15.7, FFLUC_R_SQUARED 0.158, read-out: LUCIFERASE INFECTION ASSAY - IC50): > 10 µM
21 | CCOc1ccc(/C=C/C2=Cc3c(sc(NC(=O)COC(=O)c4cccc(S(=O)(=O)N5CCc6ccccc65)c4)c3C#N)C(C)(C)C2)cc1 | > 10 µM | IC50 (FFLUC_HILL_SLOPE 15.6, FFLUC_R_SQUARED 0.606, read-out: LUCIFERASE INFECTION ASSAY - IC50): > 10 µM
22 | c1ccc(Sc2c(-c3ccccc3)cc3ccccn23)cc1 | 9.91 µM | IC50 (FFLUC_HILL_SLOPE 15.3, FFLUC_R_SQUARED 0.586, PBLUC_HILL_SLOPE 15.5, PBLUC_R_SQUARED 0.389, read-out: LUCIFERASE INFECTION ASSAY - IC50): 8.6 µM
23 | Cc1cc(C)c(-c2csc(NC(=O)c3cc(-c4ccccc4)nn3-c3ccccc3)n2)c(C)c1 | > 10 µM | IC50 (FFLUC_HILL_SLOPE 15.4, FFLUC_R_SQUARED 0.775, read-out: LUCIFERASE INFECTION ASSAY - IC50): > 10 µM
24 | OCc1ccc(-c2cnc3ccc(-c4cccc(OC(F)(F)F)c4)nn23)cc1 | 3.46 µM | IC50 (FFLUC_HILL_SLOPE 15.5, FFLUC_R_SQUARED 0.126, HEPG2TOX_HILL_SLOPE 8.34, HEPG2TOX_R_SQUARED 0.955, PBLUC_HILL_SLOPE 1.79, PBLUC_R_SQUARED 0.869, read-out: LUCIFERASE INFECTION ASSAY - IC50): 1.01 µM
25 | COC(=O)c1sc(N)c(C(=O)OC)c1COC(=O)/C=C/c1ccc(OC(F)F)cc1 | > 10 µM | IC50 (FFLUC_HILL_SLOPE 15.7, FFLUC_R_SQUARED 0.211, read-out: LUCIFERASE INFECTION ASSAY - IC50): > 10 µM
26 | O=C(c1cn(-c2ccccc2)nc1-c1cccs1)N1c2ccccc2CCc2ccccc21 | > 10 µM | IC50 (FFLUC_HILL_SLOPE 15.3, FFLUC_R_SQUARED 0.476, HEPG2TOX_HILL_SLOPE 1.99, HEPG2TOX_R_SQUARED 0.329, PBLUC_HILL_SLOPE 2.58, PBLUC_R_SQUARED 0.689, read-out: LUCIFERASE INFECTION ASSAY - IC50): 6.76 µM
27 | COC(=O)c1ccc(-n2c(C)cc(-c3csc(NC(=O)/C=C/c4ccccc4[N+](=O)[O-])n3)c2C)cc1 | > 10 µM | IC50 (FFLUC_HILL_SLOPE 15.6, FFLUC_R_SQUARED 0.621, read-out: LUCIFERASE INFECTION ASSAY - IC50): > 10 µM
28 | CCCn1c(NC(=O)C2CCCN(S(=O)(=O)c3cccs3)C2)nc2ccccc21 (stereo not given) | > 10 µM | IC50 (FFLUC_HILL_SLOPE 15.6, FFLUC_R_SQUARED 0.229, read-out: LUCIFERASE INFECTION ASSAY - IC50): > 10 µM
29 | N#Cc1ccc(/C=N/NC(=O)c2ccc(COc3ccccc3-c3ccccc3)cc2)cc1 | 9.24 µM | IC50 (FFLUC_HILL_SLOPE 15.4, FFLUC_R_SQUARED 0.374, HEPG2TOX_HILL_SLOPE 8.76, HEPG2TOX_R_SQUARED 0.561, PBLUC_HILL_SLOPE 30.2, PBLUC_R_SQUARED 0.437, read-out: LUCIFERASE INFECTION ASSAY - IC50): 8.6 µM
30 | COc1cc(NC(=O)c2sccc2Oc2ccc(C(F)(F)F)cc2[N+](=O)[O-])c(Cl)cc1Cl | 5.34 µM | IC50 (FFLUC_HILL_SLOPE 15.3, FFLUC_R_SQUARED 0.803, PBLUC_HILL_SLOPE 1.96, PBLUC_R_SQUARED 0.575, read-out: LUCIFERASE INFECTION ASSAY - IC50): 1.74 µM
